The values below come from patent US12583861B2, “Derivatives of imidazo[4,5-d]pyridazine, their preparation and their therapeutic application” (SANOFI, priority 2021, dated 2026).

Where a name gives a salt, the structure may show the parent alone.

One test deals with T1, human TLR7 (Homo sapiens, UniProt Q9NYK1).
T1 construct: host or cells: HEK293 (HEK-Blue hTLR7)
T1 sequence (Q9NYK1 27-1049): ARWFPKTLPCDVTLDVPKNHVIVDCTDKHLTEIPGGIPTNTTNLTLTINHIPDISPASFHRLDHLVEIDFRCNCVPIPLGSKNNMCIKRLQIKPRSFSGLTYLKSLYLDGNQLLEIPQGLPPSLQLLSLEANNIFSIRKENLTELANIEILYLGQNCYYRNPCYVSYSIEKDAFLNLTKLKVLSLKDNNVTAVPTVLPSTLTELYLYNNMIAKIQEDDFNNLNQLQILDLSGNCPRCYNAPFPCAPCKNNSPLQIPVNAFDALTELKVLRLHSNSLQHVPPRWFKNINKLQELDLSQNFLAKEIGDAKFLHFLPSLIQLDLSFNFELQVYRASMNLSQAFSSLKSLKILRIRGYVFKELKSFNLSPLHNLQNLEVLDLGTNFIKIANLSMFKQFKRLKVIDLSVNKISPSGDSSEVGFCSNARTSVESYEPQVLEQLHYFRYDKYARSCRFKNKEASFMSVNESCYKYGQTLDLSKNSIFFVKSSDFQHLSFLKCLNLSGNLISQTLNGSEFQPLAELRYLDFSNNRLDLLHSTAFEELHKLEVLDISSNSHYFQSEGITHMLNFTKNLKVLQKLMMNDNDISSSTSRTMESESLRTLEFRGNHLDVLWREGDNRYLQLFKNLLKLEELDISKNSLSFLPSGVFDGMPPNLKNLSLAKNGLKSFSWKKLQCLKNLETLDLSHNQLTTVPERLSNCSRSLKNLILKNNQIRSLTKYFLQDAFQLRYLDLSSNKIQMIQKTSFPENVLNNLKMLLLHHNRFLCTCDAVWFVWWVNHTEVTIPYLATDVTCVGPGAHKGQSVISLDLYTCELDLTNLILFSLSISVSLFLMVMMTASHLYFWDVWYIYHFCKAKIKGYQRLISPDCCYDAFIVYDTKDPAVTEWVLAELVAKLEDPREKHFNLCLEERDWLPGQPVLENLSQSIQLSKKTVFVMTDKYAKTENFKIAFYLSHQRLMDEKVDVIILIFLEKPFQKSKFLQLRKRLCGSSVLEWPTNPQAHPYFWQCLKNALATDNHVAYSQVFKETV
Put plainly: HEK-Blue hTLR7 reporter cell assay (SEAP, NF-kB/AP-1) for stimulation of human TLR7. It counts as cell-based. The conditions noted are these: HEK-Blue hTLR7 cells; for EC50: 24 h incubation, SEAP readout, read-out: TLR7_EC50. Put shortly: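 HEK293 cells expressing hTLR7 with NF-κB/AP-1-driven SEAP reporter, seeded 3.10E4 cells/well, pre-incubated 18–24 h, then exposed to 3-fold compound dilutions (0.01–20 μM) for 24 h at 37 °C. Supernatant SEAP read with QUANTI-Blue; EC50 as concentration giving 50% activation.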

Another test addresses T2, human TLR8 (Homo sapiens, UniProt Q9NR97).
T2 construct: host or cells: HEK293 (HEK-Blue hTLR8)
T2 sequence (Q9NR97 27-1041): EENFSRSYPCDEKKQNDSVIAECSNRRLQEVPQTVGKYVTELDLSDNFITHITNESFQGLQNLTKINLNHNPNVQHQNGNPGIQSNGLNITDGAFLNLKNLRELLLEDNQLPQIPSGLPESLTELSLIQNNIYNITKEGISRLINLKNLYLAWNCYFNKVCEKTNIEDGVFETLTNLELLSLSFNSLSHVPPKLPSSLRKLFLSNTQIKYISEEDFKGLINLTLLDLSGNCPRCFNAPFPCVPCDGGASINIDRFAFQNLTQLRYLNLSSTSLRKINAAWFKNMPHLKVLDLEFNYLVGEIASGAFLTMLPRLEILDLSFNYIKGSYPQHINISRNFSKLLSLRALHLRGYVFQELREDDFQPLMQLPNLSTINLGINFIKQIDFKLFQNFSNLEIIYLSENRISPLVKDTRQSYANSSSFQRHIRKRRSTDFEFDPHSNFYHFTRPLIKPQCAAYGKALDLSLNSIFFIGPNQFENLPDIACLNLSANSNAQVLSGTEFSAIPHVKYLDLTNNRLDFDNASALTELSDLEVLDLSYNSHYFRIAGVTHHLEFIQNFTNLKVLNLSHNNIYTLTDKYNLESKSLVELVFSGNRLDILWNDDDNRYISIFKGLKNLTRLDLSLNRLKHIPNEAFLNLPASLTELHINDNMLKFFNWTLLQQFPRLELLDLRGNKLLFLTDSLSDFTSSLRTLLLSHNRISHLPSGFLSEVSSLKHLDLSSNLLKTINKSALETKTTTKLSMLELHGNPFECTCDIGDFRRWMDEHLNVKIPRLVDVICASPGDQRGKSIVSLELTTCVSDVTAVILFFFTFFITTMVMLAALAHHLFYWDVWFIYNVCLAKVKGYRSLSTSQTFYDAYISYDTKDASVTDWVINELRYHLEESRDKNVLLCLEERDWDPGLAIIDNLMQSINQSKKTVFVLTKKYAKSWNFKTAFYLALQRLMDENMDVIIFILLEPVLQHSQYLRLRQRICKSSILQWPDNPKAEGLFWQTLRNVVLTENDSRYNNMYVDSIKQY
Put plainly: HEK-Blue hTLR8 reporter cell assay (SEAP, NF-kB/AP-1) for stimulation of human TLR8. It counts as cell-based. Particulars: HEK-Blue hTLR8 cells; for EC50: 24 h incubation, SEAP readout, read-out: TLR8_EC50. The method, boiled down:
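HEK293 cells carrying hTLR8 and a SEAP reporter driven by NF-κB/AP-1 sites were seeded at 3.10E4 cells/well and held 18 to 24 h at 37° C., 5% CO2 before compound addition. Supernatant SEAP measured with QUANTI-Blue™.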

Regarding `CCCCc1nc2c(N)nnc(OC(C)C)c2n1Cc1ccc(CNCCOCCOCCOCCOCCOCCOC)cc1` [Compound 105, 2-butyl-4-isopropoxy-3-[[4-[[2-[2-[2-[2-[2-(2-methoxyethoxy)ethoxy]ethoxy]ethoxy]ethoxy]ethylamino]methyl]phenyl]methyl]imidazo[4,5-d]pyridazin-7-amine], the EC50 was 114 nM on human TLR7 and over 20 µM at human TLR8.

As for `CCCCc1nc2c(N)nnc(C3=CCOC3)c2n1Cc1ccc(OC)cc1` [Compound 73, 2-butyl-7-(2,5-dihydrofuran-3-yl)-1-(4-methoxybenzyl)-1H-imidazo[4,5-d]pyridazin-4-amine], the EC50 was 10100 nM at human TLR7 and over 20 µM on human TLR8.

For the molecule `CCCCc1nc2c(N)nnc(OC3CCS(=O)(=O)C3)c2n1Cc1ccc(OC)cc1` (stereo not shown) [Compound 68, 3-((4-amino-2-butyl-1-(4-methoxybenzyl)-1H-imidazo[4,5-d]pyridazin-7-yl)oxy)tetrahydrothiophene 1,1-dioxide], the EC50 on human TLR7 was 4770 nM; at human TLR8, over 20 µM.

Consider `CCCCc1nc2c(N)nnc(OC(C)C)c2n1Cc1ccc(CNC(=O)OCc2ccc(NC(C)=O)cc2)cc1` [Compound 114, 4-acetamidobenzyl (4-((4-amino-2-butyl-7-isopropoxy-1H-imidazo[4,5-d]pyridazin-1-yl)methyl)benzyl)carbamate], for which the results for the EC50 on human TLR7 and at human TLR8 were 163 nM and over 6.34 µM, respectively.

Take `CCCCc1nc2c(N)nnc(OC(C)C)c2n1CC(C)(C)O` [Compound 24, 1-(4-amino-2-butyl-7-isopropoxy-1H-imidazo[4,5-d]pyridazin-1-yl)-2-methylpropan-2-ol]: the EC50 on human TLR7 worked out at 234 nM; on human TLR8 it was 2.64 µM.

Consider `CCCCc1nc2c(N)nnc(OC(C)C)c2n1Cc1cccc(CN2CCNCC2)c1` [Compound 131, 2-butyl-7-isopropoxy-1-(3-(piperazin-1-ylmethyl)benzyl)-1H-imidazo[4,5-d]pyridazin-4-amine], for which the EC50 on human TLR7 is 607 nM; on human TLR8 it was over 20 µM.

With `CCCCc1nc2c(N)nnc(C3=CCCC3)c2n1Cc1ccc(OC)cc1` [Compound 15, 2-butyl-7-(cyclopent-1-en-1-yl)-1-(4-methoxybenzyl)-1H-imidazo[4,5-d]pyridazin-4-amine hydrochloride], the results for the EC50 on human TLR7 and at human TLR8 were 649 nM and over 20 µM, respectively.

Regarding `CCCCc1nc2c(N)nnc(OCCC)c2n1Cc1ccc(OC)cc1` [Compound 5, 2-butyl-1-(4-methoxybenzyl)-7-propoxy-1H-imidazo[4,5-d]pyridazin-4-amine], the results for the EC50 on human TLR7 and at human TLR8 were 145 nM and over 20 µM, respectively.

On to `CCCCc1nc2c(N)nnc(OC3CCSC3)c2n1Cc1ccc(OC)cc1` (stereo not shown) [Compound 58, 2-butyl-1-(4-methoxybenzyl)-7-((tetrahydrothiophen-3-yl)oxy)-1H-imidazo[4,5-d]pyridazin-4-amine], for which the values for the EC50 on human TLR7 and at human TLR8 were 433 nM and over 20 µM, respectively.

In the case of `CCCCc1nc2c(N)nnc(OC(C)C)c2n1C[C@H]1CC[C@H](N)CC1` [Compound 25], the EC50 on human TLR7 is 109 nM; on human TLR8, over 20 µM.

Turning to `CCCCc1nc2c(N)nnc(OC(C)C)c2n1Cc1ccc(CN2CCOCC2)cc1` [Compound 102, 2-butyl-7-isopropoxy-1-(4-(morpholinomethyl)benzyl)-1H-imidazo[4,5-d]pyridazin-4-amine], the EC50 at human TLR7 turned out to be 71 nM; on human TLR8 it was 3.83 µM.

In the case of `CCCCc1nc2c(N)nnc(/C=C/C(C)C)c2n1Cc1ccc(OC)cc1` [Compound 12, (E)-2-butyl-1-(4-methoxybenzyl)-7-(3-methylbut-1-en-1-yl)-1H-imidazo[4,5-d]pyridazin-4-amine], the EC50 at human TLR7 was 710 nM; on human TLR8, over 20 µM.

In the case of `CCCCc1nc2c(N)nnc(OC(C)C)c2n1Cc1ccc(CNC(=O)NCC)cc1` [Compound 113, 1-(4-((4-amino-2-butyl-7-isopropoxy-1H-imidazo[4,5-d]pyridazin-1-yl)methyl)benzyl)-3-ethylurea], the EC50 at human TLR7 is 120 nM; on human TLR8, over 20 µM.

For `CCCCc1nc2c(N)nnc(OC(C)C)c2n1CCN1CCNCC1` [Compound 79, 2-butyl-7-isopropoxy-1-(2-(piperazin-1-yl)ethyl)-1H-imidazo[4,5-d]pyridazin-4-amine], the EC50 was 9710 nM on human TLR7 and over 20 µM on human TLR8.

With `CCCCc1nc2c(N)nnc(-c3cc[nH]c3)c2n1C[C@H]1CC[C@H](N)CC1` [Compound 141, 1-(((1R,4R)-4-aminocyclohexyl)methyl)-2-butyl-7-(1H-pyrrol-3-yl)-1H-imidazo[4,5-d]pyridazin-4-amine], the activation at 20 µM turned out to be 26.8% at human TLR7 (24 h, at 20000 nM) and 19.6% on human TLR8 (24 h, at 20000 nM).

On to `CCCCc1nc2c(N)nnc(C3CCCCC3)c2n1Cc1ccc(OC)cc1` [Compound 51, 2-butyl-7-cyclohexyl-1-(4-methoxybenzyl)-1H-imidazo[4,5-d]pyridazin-4-amine], for which the results for the EC50 on human TLR7 and at human TLR8 were 1020 nM and over 20 µM, respectively.

On to `CCCCc1nc2c(N)nnc(N3CCC(c4ccc(CO)cc4)C3)c2n1C` (stereo not shown) [Compound 85, (4-(1-(4-amino-2-butyl-1-methyl-1H-imidazo[4,5-d]pyridazin-7-yl)pyrrolidin-3-yl)phenyl)methanol hydrochloride], for which the figures for the EC50 on human TLR7 and at human TLR8 were 606 nM and 3.1 µM, respectively.

Take `CCCCc1nc2c(N)nnc(OC(C)C)c2n1Cc1ccc(CNC(=O)OCc2ccc(OC)cc2)cc1` [Compound 112, 4-methoxybenzyl (4-((4-amino-2-butyl-7-isopropoxy-1H-imidazo[4,5-d]pyridazin-1-yl)methyl)benzyl)carbamate]: the EC50 was 248 nM on human TLR7 and over 20 µM at human TLR8.

On to `CCCCc1nc2c(N)nnc(OC(C)C)c2n1Cc1cccc(CNC2CC2)c1` [Compound 127, 2-butyl-1-(3-((cyclopropylamino)methyl)benzyl)-7-isopropoxy-1H-imidazo[4,5-d]pyridazin-4-amine dihydrochloride salt], for which the EC50 worked out at 93 nM at human TLR7 and 0.179 µM on human TLR8.

On to `CCCCc1nc2c(N)nnc(Oc3ccccc3)c2n1Cc1ccc(OC)cc1` [Compound 72, 2-butyl-1-(4-methoxybenzyl)-7-phenoxy-1H-imidazo[4,5-d]pyridazin-4-amine], for which the values for the EC50 at human TLR7 and on human TLR8 were 3760 nM and over 20 µM, respectively.
